From paper PMC5494547 (2015)

Legend:
[1] = system: MBA1 (DNA, aptamer) TACACTGGGGAGTATTGCGGAGGAAGTGTA; assay: circular dichroism; settings: 1 µM MBA1, 50 mM ATP; quadruplex bands at 265 and 295 nm
[2] = system: MBA3 (DNA, aptamer) GCGCGCGGGGAGTATTGCGGAGGAGCGCGC; assay: circular dichroism; settings: CD unchanged by PPFP-Br; tighter folded G-quadruplex than ATP/MBA1

Nc1ncnc2c1ncn2[C@@H]1O[C@H](COP(=O)(O)OP(=O)(O)OP(=O)(O)O)[C@@H](O)[C@H]1O
binding [1]: yes
binding [2]: yes
